Reference: ChEMBL document CHEMBL5705902, “Role of G Protein-Coupled Receptor Kinases 2 and 3 in μ-Opioid Receptor Desensitization and Internalization” (Mol Pharmacol, 2015)
Calls of active or inactive are those of the source. The rule behind the calls is not given here.

Key:
[1] = biological target: Mu-type opioid receptor (Rattus norvegicus) (UniProt P33535); assay: Inhibition of MOPr desensitization in wistar rat LC neuron cells assessed as reduction in the DAMGO induced desensitization incubated for 15 mins in the presence of GSK650394; assay type: functional, cell-based
[2] = biological target: Mu-type opioid receptor (Rattus norvegicus) (UniProt P33535); assay: Inhibition of MOPr desensitization in wistar rat LC neuron cells assessed as reduction in the DAMGO induced desensitization incubated for 15 mins in the presence of Y-27632; assay type: functional, cell-based

Sequence of Mu-type opioid receptor (Rattus norvegicus) (P33535 whole entry): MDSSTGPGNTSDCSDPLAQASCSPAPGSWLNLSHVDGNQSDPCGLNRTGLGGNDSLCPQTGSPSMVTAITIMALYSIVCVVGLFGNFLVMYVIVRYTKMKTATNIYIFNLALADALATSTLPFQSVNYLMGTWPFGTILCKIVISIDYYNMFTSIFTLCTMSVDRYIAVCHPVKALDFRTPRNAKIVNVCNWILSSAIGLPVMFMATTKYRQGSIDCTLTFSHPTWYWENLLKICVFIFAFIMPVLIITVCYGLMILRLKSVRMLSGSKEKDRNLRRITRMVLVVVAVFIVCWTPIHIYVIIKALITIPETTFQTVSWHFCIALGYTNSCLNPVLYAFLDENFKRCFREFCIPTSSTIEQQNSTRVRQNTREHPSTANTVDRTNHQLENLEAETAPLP

## C[C@@H](N)[C@H]1CC[C@H](C(=O)Nc2ccncc2)CC1
[1]
  inhibition: inactive

## O=C(O)c1ccc(-c2c[nH]c3ncc(-c4ccccc4)cc23)cc1C1CCCC1
[2]
  inhibition: inactive
